Data published in US9856732B2, “Tracers” (RESTRACK AS, priority 2012, dated 2018).

What was measured:
[1] = Biodegradability in seawater (OECD 306)
Method: Tracers must be stable in the harsh reservoir environment, thus their results in the seawater biodegradation component of the HOCNF scheme “OECD (306 1999) guideline for testing chemicals, biodegradation in seawater” often show less than 20% biodegradation ensuring that they automatically are placed in the red category.
(§1) The most important environmental properties were tested on several example compounds. These are biodegradability in seawater and toxicity screening for Skeletonema Costatum. The latter gives a good general indication of the total toxicity of a chemical and in combination with the biodegradability gives a strong indication of the total impact of the environment.

[2] = Oil/water partition coefficient from flooding experiment on silica-packed column at residual oil saturation; type: physicochemical; details: 80° C., oil 2 and water 2
Method: Structural formulas of examples of compounds from four groups of fluorinated benzyl alcohols tested are shown herein, including in FIG. 1. The compounds could be analyzed using gas chromatography with mass spectrometric detection (GC-MS) in produced water after clean-up and pre-concentration of the water samples. Detection limits of 50 ng/l (ppt) could be obtained depending on the level of interferences from the sample matrix. Several compounds from the four groups were selected and tested for thermal stability, flooding properties, and adsorption to rock materials. In addition, two pilot field tests were initiated. Some results from the laboratory tests are shown in Table 1 and in FIG. 2 to FIG. 10. Partition coefficients were measured at 80° C., oil 2 and water 2.
A still further feature of the benzyl alcohol compounds used in the various aspects of the present invention is their highly suitable partition coefficients. For example, compounds of formula i) or preferred compounds as described herein may have partition coefficients between 1.0 and 8.0. The partition coefficients should not be too high because the partitioning tracers then will be retained too much compared to the passive water tracer. Preferable values for the partition coefficients will be between 1.2 and 7, preferably between 1.3 and 5. In all cases referred to herein partition coefficients are measured at 80° C., oil 2 and water 2, unless otherwise stated.
To test the dynamic properties of the tracer candidate an experimental setup containing a residual oil saturated column was used. […] The column was packed with 70 μm silica beads. Dead crude oil was pumped through the column after which artificial formation water was pumped through the system until residual oil saturation was reached. The tracer candidate was then co-injected with tritiated water (HTO) as a pulse into the water flow. The experiments were conducted with different oil types, different water compositions and at several temperatures.

[3] = test system: Skeletonema Costatum; assay: Toxicity screening for Skeletonema Costatum (ISO 10253; 2006); type: cell-based; details: exposure of 72 hr
Description: In addition to biodegradation in seawater other tests to be conducted are the toxicity test with Acardia Tonsa (ISO14669; 1999), providing a median lethal concentration (LC50) after an exposure of 48 hr, toxicity test with Skeletonema Costatum (ISO 10253; 2006), providing a median effect concentration (EC50/EL50) after an exposure of 72 hr, toxicity test with Scophthalmus Maximus (PARCOM 2006), providing the mortality of fish after 96 hr at EC50 value and bioaccumulation potential (OECD Guidelines for Testing of Chemicals, 117), providing the logarithm of n-octanol/water partition coefficient.
as §1

SMILES | Biodegradability BOD28 [1] | partition coefficient K [2] | Toxicity EL50 [3]
OCc1c(F)cccc1F [2,6-DFBOH, 2,6-difluorobenzyl alcohol] | 0% | 1.5 | –
OCc1c(F)cc(F)cc1F [2,4,6-TFBOH, 2,4,6-trifluorobenzyl alcohol] | 0-3% | 2.4 | –
OCc1ccccc1F [2-FBOH, 2-fluorobenzyl alcohol] | – | 1.5 | –
OCc1cc(F)cc(F)c1 [3,5-DFBOH, 3,5-difluorobenzyl alcohol] | 2% | 2.9 | –
OCc1ccc(F)c(F)c1 [3,4-DFBOH, 3,4-difluorobenzyl alcohol] | – | 2.1 | –
OCc1ccc(F)cc1 [4-FBOH] | 3% | – | Ca 10 mg/L
OCc1c(F)ccc(F)c1F [2,3,6-TFBOH, 2,3,6-trifluorobenzyl alcohol] | 2% | 1.9 | –
